Data published in patent US10597388B2, “Pyridazinone herbicides” (FMC CORPORATION, priority 2014, dated 2020).

Assays:
Assay type in all cases: in vivo
[1] = test system: waterhemp_RES2 (ALS & HPPD resistant common waterhemp, Amaranthus rudis); assay: Test E greenhouse herbicide test, postemergence
Outline: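 Greenhouse test, 14–21 d after postemergence treatment of 2–18 cm plants; percent control was assessed visually, 0–100, against untreated plants.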

[2] = test system: velvetleaf (Abutilon theophrasti); assay: Test C greenhouse herbicide test, pre- and postemergence
Outline: (§1)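 Preemergence: seeds sown in a loam soil–sand blend and sprayed with test chemicals in a non-phytotoxic solvent mixture containing surfactant. Postemergence: plants grown in peat-based medium and treated at 2 to 18 cm (1- to 4-leaf stage). After 13 to 15 d in a greenhouse, injury was visually rated 0–100 against controls.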

[3] = test system: crabgrass, large (large crabgrass, Digitaria sanguinalis); assay: as above
Outline: as §1

[4] = test system: ryegrass, Italian (Italian ryegrass, Lolium multiflorum); assay: as above
Outline: as §1

soybean (Glycine max) = assay: as above
Outline: as §1

[5] = test system: wheat (winter wheat, Triticum aestivum); assay: as above
Outline: as §1

[6] = test system: johnsongrass (Sorghum halepense); assay: as above
Outline: as §1

[7] = test system: barnyardgrass (Echinochloa crus-galli); assay: as above
Outline: as §1

[8] = test system: foxtail, giant (giant foxtail, Setaria faberii); assay: as above
Outline: as §1

[9] = test system: blackgrass (Alopecurus myosuroides); assay: as above
Outline: as §1

[10] = test system: galium (catchweed bedstraw, Galium aparine); assay: as above
Outline: as §1

corn (Zea mays) = assay: as above
Outline: as §1

[11] = test system: nutsedge, yellow (yellow nutsedge, Cyperus esculentus); assay: as above
Outline: as §1

[12] = Postemergence, 31 g ai/ha, 0 to 100 scale (0 no effect, 100 complete control)
[13] = Postemergence, 125 g ai/ha, scale 0 to 100, 0 is no effect, 100 is complete control
[14] = Postemergence, 250 g ai/ha, scale 0 to 100, 0 no effect, 100 complete control, 13 to 15 d
[15] = Preemergence, 31 g ai/ha, scale 0 to 100, 0 is no effect, 100 is complete control
[16] = Preemergence, 62 g ai/ha, scale 0 to 100, 0 is no effect, 100 is complete control
[17] = Preemergence, 125 g ai/ha, scale 0 to 100, 0 is no effect, 100 is complete control
[18] = Preemergence, 250 g ai/ha, scale 0 to 100, 0 no effect, 100 complete control
[19] = postemergence, 62 g ai/ha, scale 0 to 100, 0 no effect, 100 complete control

Cc1ccc2ccccc2c1-c1c(OC(=O)OC(C)C)c(C)nn(C)c1=O [Compound 72]
85: Plant response rating, Velvetleaf [2, 13] | Velvetleaf plant response rating [2, 18] | Velvetleaf plant response rating [2, 19] | Crabgrass, Large plant response rating [3, 18] | Ryegrass, Italian plant response rating [4, 12] | Johnsongrass plant response rating [6, 18] | Plant response rating, Foxtail, Giant [8, 14] | Plant response rating, Foxtail, Giant [8, 17] | Foxtail, Giant plant response rating [8, 18] | Plant response rating, Nutsedge, Yellow [11, 14]
20: Plant response rating, Barnyardgrass [7, 16] | Plant response rating, Corn (corn (Zea mays); [13]) | Corn plant response rating (corn (Zea mays); [18])
30: Plant response rating, Velvetleaf [2, 15] | Plant response rating, Soybean (soybean (Glycine max); [14]) | Wheat plant response rating [5, 12] | Plant response rating, Wheat [5, 17] | Wheat plant response rating [5, 19] | Nutsedge, Yellow plant response rating [11, 12]
60: Plant response rating, Crabgrass, Large [3, 14] | Plant response rating, Crabgrass, Large [3, 15] | Plant response rating, Foxtail, Giant [8, 15] | Blackgrass plant response rating [9, 12] | Plant response rating, Nutsedge, Yellow [11, 17] | Nutsedge, Yellow plant response rating [11, 19]
25: Crabgrass, Large plant response rating [3, 19] | Plant response rating, Johnsongrass [6, 16] | Plant response rating, Corn (corn (Zea mays); [14])
65: Plant response rating, Waterhemp_RES2 ([1]; 250 g ai/ha, scale 0 to 100 (0 no effect, 100 complete control)) | Plant response rating, Crabgrass, Large [3, 17] | Plant response rating, Barnyardgrass [7, 14]
70: Plant response rating, Foxtail, Giant [8, 16] | Foxtail, Giant plant response rating [8, 19] | Plant response rating, Blackgrass [9, 17] | Blackgrass plant response rating [9, 19] | Plant response rating, Nutsedge, Yellow [11, 13] | Nutsedge, Yellow plant response rating [11, 18]
10: Crabgrass, Large plant response rating [3, 12] | Soybean plant response rating (soybean (Glycine max); [12]) | Plant response rating, Barnyardgrass [7, 15] | Corn plant response rating (corn (Zea mays); [19]) | Plant response rating, Nutsedge, Yellow [11, 15] | Plant response rating, Nutsedge, Yellow [11, 16]
45: Velvetleaf plant response rating [2, 12] | Plant response rating, Velvetleaf [2, 16] | Plant response rating, Johnsongrass [6, 14]
15: Plant response rating, Soybean (soybean (Glycine max); [13]) | Soybean plant response rating (soybean (Glycine max); [19])
95: Plant response rating, Velvetleaf [2, 14] | Plant response rating, Galium [10, 13] | Plant response rating, Galium [10, 14] | Plant response rating, Galium [10, 17] | Galium plant response rating [10, 18] | Galium plant response rating [10, 19]
75: Plant response rating, Foxtail, Giant [8, 13]
35: Plant response rating, Waterhemp_RES2 ([1]; 31 g ai/ha, visual, scale 0 no effect to 100 complete control) | Plant response rating, Crabgrass, Large [3, 13] | Plant response rating, Wheat [5, 14] | Barnyardgrass plant response rating [7, 12]
80: Plant response rating, Velvetleaf [2, 17] | Plant response rating, Crabgrass, Large [3, 16] | Plant response rating, Soybean (soybean (Glycine max); [15]) | Plant response rating, Johnsongrass [6, 17] | Barnyardgrass plant response rating [7, 18] | Plant response rating, Blackgrass [9, 13] | Galium plant response rating [10, 12]
5: Plant response rating, Wheat [5, 13] | Johnsongrass plant response rating [6, 12] | Plant response rating, Johnsongrass [6, 13] | Johnsongrass plant response rating [6, 19] | Corn plant response rating (corn (Zea mays); [12])
90: Plant response rating, Ryegrass, Italian [4, 13] | Plant response rating, Ryegrass, Italian [4, 14] | Plant response rating, Ryegrass, Italian [4, 15] | Plant response rating, Ryegrass, Italian [4, 16] | Plant response rating, Ryegrass, Italian [4, 17] | Ryegrass, Italian plant response rating [4, 18] | Ryegrass, Italian plant response rating [4, 19] | Plant response rating, Blackgrass [9, 14] | Blackgrass plant response rating [9, 18] | Plant response rating, Galium [10, 15] | Plant response rating, Galium [10, 16]
55: Plant response rating, Barnyardgrass [7, 17]
0: Plant response rating, Soybean (soybean (Glycine max); [16]) | Plant response rating, Soybean (soybean (Glycine max); [17]) | Soybean plant response rating (soybean (Glycine max); [18]) | Plant response rating, Wheat [5, 15] | Plant response rating, Wheat [5, 16] | Plant response rating, Johnsongrass [6, 15] | Plant response rating, Corn (corn (Zea mays); [15]) | Plant response rating, Corn (corn (Zea mays); [16]) | Plant response rating, Corn (corn (Zea mays); [17])
50: Plant response rating, Waterhemp_RES2 ([1]; 125 g ai/ha, scale 0 to 100 (0 no effect, 100 complete control)) | Plant response rating, Barnyardgrass [7, 13] | Foxtail, Giant plant response rating [8, 12] | Plant response rating, Blackgrass [9, 16]
40: Plant response rating, Waterhemp_RES2 ([1]; 62 g ai/ha, scale 0 to 100 (0 no effect, 100 complete control)) | Wheat plant response rating [5, 18] | Barnyardgrass plant response rating [7, 19] | Plant response rating, Blackgrass [9, 15]
